Data reported in patent US9290515B2, “Cephem derivative having catechol group” (SHIONOGI & CO., LTD., priority 2011, dated 2016).
In brackets after ≈: the same amount, converted by molar mass. Like-named read-outs stand apart in the source and are kept apart here.

What was measured:
Format in all cases: cell-based
A. baumannii SR24396 = test: MIC by broth microdilution (CLSI), A. baumannii SR24396; settings: Acinetobacter baumannii, 10000 cfu/well, cation-adjusted Mueller Hinton broth with 20 μM human apo-transferrin, read-out: minimum growth inhibition concentration (MIC)
Procedure: (§1) Measurement of a minimum growth inhibition concentration (MIC: μg/mL) was performed according to CLSI (Clinical and Laboratory Standards Institute) method, by broth microdilution method, using an inoculation microbe amount of 10000 cfu/well and cation-adjusted Mueller Hinton broth containing human-derived 20 μM apo-transferrin as a test medium.

P. aeruginosa SR24 = test: MIC by broth microdilution (CLSI), P. aeruginosa SR24; settings: Pseudomonas aeruginosa
Procedure: as §1

[1] = tested on: P. aeruginosa SR27001(MDRP, IMP-1+); test: MIC by broth microdilution (CLSI), P. aeruginosa SR27001; settings: Pseudomonas aeruginosa, read-out: minimum growth inhibition concentration (MIC)
Procedure: as §1

[2] = tested on: P. aeruginosa SR27060(metallo); test: MIC by broth microdilution (CLSI), P. aeruginosa SR27060; settings: Pseudomonas aeruginosa; P. aeruginosa SR27060, IMP-1, MBL producing carbapenem-resistant strain; 10000 cfu/well; cation-adjusted Mueller Hinton broth with 20 μM human apo-transferrin; read-out: minimum growth inhibition concentration (MIC)
Procedure: as §1

[3] = tested on: E. coli ATCC BAA-196_TEM-10; test: MIC by broth microdilution (CLSI), E. coli ATCC BAA-196; settings: Escherichia coli
Procedure: as §1

[4] = tested on: K. pneumoniae ATCC 700603_SHV18; test: MIC by broth microdilution (CLSI), K. pneumoniae ATCC 700603; settings: Klebsiella pneumoniae
Procedure: as §1

[5] = P. aeruginosa SR24, Ceftazidime-sensitive strain, 10000 cfu/well, cation-adjusted Mueller Hinton broth with 20 μM human apo-transferrin, read-out: minimum growth inhibition concentration (MIC)
[6] = P. aeruginosa SR27001, MDRP, IMP-1, MBL producing carbapenem-resistant strain, 10000 cfu/well, cation-adjusted Mueller Hinton broth with 20 μM human apo-transferrin
[7] = ATCCBAA196, E. coli ATCC BAA-196, TEM-10, ESBL producing strain, 10000 cfu/well, cation-adjusted Mueller Hinton broth with 20 μM human apo-transferrin, read-out: minimum growth inhibition concentration (MIC)
[8] = ATCC700603, K. pneumoniae ATCC 700603, SHV-18, ESBL producing strain, 10000 cfu/well, cation-adjusted Mueller Hinton broth with 20 μM human apo-transferrin, read-out: minimum growth inhibition concentration (MIC)

SMILES	MIC (A. baumannii SR24396) [µg/mL]	MIC (P. aeruginosa SR24; [5]) [µg/mL]	MIC [1, 6] [µg/mL]	MIC [2] [µg/mL]	MIC [3, 7] [µg/mL]	MIC [4, 8] [µg/mL]	MIC (P. aeruginosa SR24; SR24, read-out: minimum growth inhibition concentration (MIC)) [µg/mL]	MIC [1] [µg/mL]	MIC ([3]; ATCCBAA196, read-out: minimum growth inhibition concentration (MIC)) [µg/mL]	MIC ([4]; ATCC700603, read-out: minimum growth inhibition concentration (MIC)) [µg/mL]
C[N+]1(CC2=C(C(=O)[O-])N3C(=O)[C@@H](NC(=O)/C(=N\OC[C@H](NC(=O)c4ccc(O)c(O)c4Cl)C(=O)O)c4csc(N)n4)[C@H]3SC2)[C@@H]2CC[C@H]1C[C@@H](N)C2 (stereo partly shown) [Compound I-1]	≤ 0.031	0.125 (≈ 0.16 µM)	0.5 (≈ 0.642 µM)	0.25 (≈ 0.321 µM)	0.25 (≈ 0.321 µM)	2 (≈ 2.57 µM)	–	–	–	–
NCC[N+]1(CC2=C(C(=O)[O-])N3C(=O)[C@@H](NC(=O)/C(=N\OC[C@H](NC(=O)c4ccc(O)c(O)c4Cl)C(=O)O)c4csc(N)n4)[C@H]3SC2)CCCC1 [Compound I-2]	0.063 (≈ 0.0836 µM)	0.125 (≈ 0.166 µM)	0.25 (≈ 0.332 µM)	0.125 (≈ 0.166 µM)	0.25 (≈ 0.332 µM)	4 (≈ 5.31 µM)	–	–	–	–
Nc1nc(/C(=N/OC[C@H](NC(=O)c2ccc(O)c(O)c2Cl)C(=O)[O-])C(=O)N[C@@H]2C(=O)N3C(C(=O)[O-])=C(Cn4ccc(=O)c(O)c4)CS[C@H]23)cs1.[Na+].[Na+] [Compound I-5]	≤ 0.031	–	–	–	8	–	–	–	–	–
C[N+]1(CC2=C(C(=O)[O-])N3C(=O)[C@@H](NC(=O)/C(=N\OC(CNC(=O)c4ccc(O)c(O)c4Cl)C(=O)O)c4csc(N)n4)[C@H]3SC2)[C@@H]2CC[C@H]1C[C@@H](N)C2 (stereo partly shown) [Compound I-6]	≤ 0.031	0.125 (≈ 0.16 µM)	0.25 (≈ 0.321 µM)	0.25 (≈ 0.321 µM)	0.25 (≈ 0.321 µM)	0.125 (≈ 0.16 µM)	–	–	–	–
NCC[N+]1(CC2=C(C(=O)[O-])N3C(=O)[C@@H](NC(=O)/C(=N\OC(CNC(=O)c4ccc(O)c(O)c4Cl)C(=O)O)c4csc(N)n4)[C@H]3SC2)CCCC1 (stereo partly shown) [Compound I-7]	≤ 0.031	0.125 (≈ 0.166 µM)	0.5 (≈ 0.664 µM)	0.125 (≈ 0.166 µM)	0.125 (≈ 0.166 µM)	0.063 (≈ 0.0836 µM)	–	–	–	–
C[N+]1(CC2=C(C(=O)[O-])N3C(=O)[C@@H](NC(=O)/C(=N\OC(CNC(=O)c4ccc(O)c(O)c4Cl)C(=O)[O-])c4csc(N)n4)[C@H]3SC2)[C@@H]2CCC[C@H]1CC2.[Na+] (stereo partly shown) [Compound I-10]	–	–	–	–	–	–	0.25	2	1	0.5
Nc1nc(/C(=N/O[C@@H](CNC(=O)c2ccc(O)c(O)c2Cl)C(=O)[O-])C(=O)N[C@@H]2C(=O)N3C(C(=O)[O-])=C(C[N+]45CCC(CNC(=O)CC[C@H](N)C(=O)O)(CC4)CC5)CS[C@H]23)cs1.[Na+] [Compound I-12]	–	0.25	4	–	2	1	–	–	–	–
Nc1nc(/C(=N/OC(CNC(=O)c2ccc(O)c(O)c2Cl)C(=O)[O-])C(=O)N[C@@H]2C(=O)N3C(C(=O)[O-])=C(C[N+]45CCC(CC4)CC5)CS[C@H]23)c(Cl)s1.[Na+] (stereo partly shown) [Compound I-15]	–	0.25	4	–	1	1	–	–	–	–

The next lines start with results.

MIC (A. baumannii SR24396) [µg/mL]	MIC (P. aeruginosa SR24; [5]) [µg/mL]	MIC [1, 6] [µg/mL]	MIC [2] [µg/mL]	MIC [3, 7] [µg/mL]	MIC [4, 8] [µg/mL]	SMILES	MIC (P. aeruginosa SR24; SR24, read-out: minimum growth inhibition concentration (MIC)) [µg/mL]	MIC [1] [µg/mL]	MIC ([3]; ATCCBAA196, read-out: minimum growth inhibition concentration (MIC)) [µg/mL]	MIC ([4]; ATCC700603, read-out: minimum growth inhibition concentration (MIC)) [µg/mL]
0.125	0.25	4	1	1	–	Nc1nc(/C(=N/OC[C@H](NC(=O)c2ccc(O)c(O)c2Cl)C(=O)[O-])C(=O)N[C@@H]2C(=O)N3C(C(=O)[O-])=C(C[n+]4cccc5c4CCC5)CS[C@H]23)cs1.[Na+] [Compound I-3]	–	–	–	–
–	0.125	–	–	0.5	–	CC1(C)CCc2ccc[n+](CC3=C(C(=O)[O-])N4C(=O)[C@@H](NC(=O)/C(=N\OC[C@H](NC(=O)c5ccc(O)c(O)c5Cl)C(=O)[O-])c5csc(N)n5)[C@H]4SC3)c21.[Na+] [Compound I-4]	–	–	–	–
0.063	0.125	8	4	0.5	1	C[N+]1(CC2=C(C(=O)[O-])N3C(=O)[C@@H](NC(=O)/C(=N\OC(CNC(=O)c4ccc(O)c(O)c4Cl)C(=O)[O-])c4csc(N)n4)[C@H]3SC2)CCCC1.[Na+] (stereo partly shown) [Compound I-8]	–	–	–	–
–	0.25	4	–	1	4	C[N+]1(CC2=C(C(=O)[O-])N3C(=O)[C@@H](NC(=O)/C(=N\O[C@@H](CNC(=O)c4ccc(O)c(O)c4Cl)C(=O)[O-])c4csc(N)n4)[C@H]3SC2)CC2CCCC2C1.[Na+] (stereo partly shown) [Compound I-11]	–	–	–	–
–	0.5	–	–	0.5	1	CC1(C)CCc2ccc[n+](CC3=C(C(=O)[O-])N4C(=O)[C@@H](NC(=O)/C(=N\O[C@@H](CNC(=O)c5ccc(O)c(O)c5Cl)C(=O)[O-])c5csc(N)n5)[C@H]4SC3)c21.[Na+] [Compound I-14]	–	–	–	–
